Patent publication US10738053B2, “Bicyclic compounds as dual ATX/CA inhibitors” (Hoffmann-La Roche Inc., priority 2015, dated 2020)
pIC50: −log10 of the molar value.

What was measured:
human ATX = human ATX (Homo sapiens (Human), UniProt Q13822); test: Human ATX enzyme inhibition assay (fluorescence quenching, MR121 substrate); format: biochemical; conditions: human His-tagged ATX 30 nM, MR121 substrate 1 μM
Protocol: Production of Human Full Length ATX, with and without His Tag
Autotaxin (ATX-ENPP2) cloning: cDNA was prepared from commercial human hematopoietic cells total RNA and used as template in overlapping PCR to generate a full length human ENPP2 ORF with or without a 3′-6× His tag. These full length inserts were cloned into the pcDNA3.1V5-His TOPO (Invitrogen) vector. The DNA sequences of several single clones were verified. The DNA from a correct full length clone was used to transfect Hek293 cells for verification of protein expression. The sequence of the encoded ENPP2 conforms to Swissprot entry Q13822, with or without the additional C-terminal 6× His tag.
ATX Fermentation: Recombinant protein was produced by large-scale transient transfection in 20 L controlled stirred tank bioreactors (Sartorius). During cell growth and transfection, temperature, stirrer speed, pH and dissolved oxygen concentration were maintained at 37° C., 120 rpm, 7.1 and 30% DO, respectively. FreeStyle 293-F cells (Invitrogen) were cultivated in suspension in FreeStyle 293 medium (Invitrogen) and transfected at ca. 1-1.5×10E6 cells/mL with above plasmid DNAs using X-tremeGENE Ro-1539 (commercial product, Roche Diagnostics) as complexing agent. Cells were fed a concentrated nutrient solution (J Immunol Methods 194 (1996), 19, 1-199 (page 193)) and induced by sodium butyrate (2 mM) at 72 h post-transfection and harvested at 96 h post-transfection. Expression was analyzed by Western Blot, enzymatic assay and/or analytical IMAC chromatography. After cooling the cell suspension to 4° C. in a flow-through heat exchanger, cell separation and sterile filtration of supernatant was performed by filtration through Zeta Plus 60M02 E16 (Cuno) and Sartopore 2 XLG (Sartorius) filter units. The supernatant was stored at 4° C. prior to purification.
ATX Purification: 20 liter of culture supernatant were conditioned for ultrafiltration by adding Brij 35 to a final concentration of 0.02% and by adjusting the pH to 7.0 using 1 M HCl. Then the supernatant was first microfiltred through a 0.2 µm Ultran-Pilot Open Channel PES filter (Whatman) and afterwards concentrated to 1 liter through an Ultran-Pilot Screen Channel PES filter with 30 kDa MWCO (Whatman). Prior to IMAC chromatography, NiSO4 was added to a final concentration of 1 mM. […] The column was washed stepwise with the same buffer containing 20 mM, 40 mM and 50 mM imidazole, respectively. The protein was subsequently eluted using a linear gradient to 0.5 M imidazole in 15 column volumes. ATX containing fractions were pooled and concentrated using an Amicon cell equipped with a 30 kDa PES filter membrane. […] Final yield of protein after purification was 5-10 mg ATX per liter of culture supernatant. The protein was stored at −80° C.
Human ATX Enzyme Inhibition Assay
Test compounds (10 mM stock in DMSO, 8 μL) were obtained in 384 well sample plates (Corning Costar #3655) and diluted with 8 μL DMSO. […] Then, 15 μL of 41.7 nM ATX solution was added (30 nM final concentration), mixed five times and then incubated for 15 minutes at 30° C. 10 μL of MR121 substrate solution was added (1 μM final concentration), mixed 30 times and then incubated for 15 minutes at 30° C.

[1] = target: Human carbonic anhydrase II (hCA-II) (Homo sapiens (Human), UniProt P00918); test: Human carbonic anhydrase-II inhibition assay (absorbance, 4-NPA substrate); format: biochemical; conditions: hCA II 8 nM, 4-NPA 2.5 mM, absorbance 340 nm; read-out: CA-II IC50
Protocol: Human Carbonic Anhydrase-II Inhibition Assay
Then 30 μL of 16 nM hCA II solution was added (8 nM final concentration), mixed five times. 30 μL of 4-NPA substrate solution was added (2.5 mM final concentration), mixed five times.

| pIC50 (human ATX) | pIC50 [1] | Structure (SMILES) |
| --- | --- | --- |
| 8.22 | 7.57 | CO[C@@]12CN(C(=O)OCc3ccc(OC(F)(F)F)cc3)C[C@H]1CN(C(=O)c1ccc(S(N)(=O)=O)cc1)C2 (single isomer, unassigned) [Example 5.01, (+)-trans-5-(4-sulfamoyl-benzoyl)-3a-methoxy-hexahydro-pyrrolo[3,4-c]pyrrole-2-carboxylic acid 4-trifluoromethoxy-benzyl ester] |
| 8.40 | 7.82 | NS(=O)(=O)c1ccc(C(=O)N2C[C@@H]3CN(C(=O)OCc4ccc(OC(F)(F)F)cc4)C[C@@]3(F)C2)cc1 (single isomer, unassigned) [Example 5.02, (+)-trans-5-(4-sulfamoyl-benzoyl)-3a-fluoro-hexahydro-pyrrolo[3,4-c]pyrrole-2-carboxylic acid 4-trifluoromethoxy-benzyl ester] |
| 7.89 | 7.70 | CO[C@@]12CN(C(=O)OCc3ncc(C(F)(F)F)cc3NC(=O)C(C)(C)C)C[C@H]1CN(C(=O)c1ccc(S(N)(=O)=O)cc1)C2 (single isomer, unassigned) [Example 5.03, (+)-trans-5-(4-sulfamoyl-benzoyl)-3a-methoxy-hexahydro-pyrrolo[3,4-c]pyrrole-2-carboxylic acid 3-(2,2-dimethyl-propionylamino)-5-trifluoromethyl-pyridin-2-ylmethyl ester] |
| 8.22 | 7.02 | C[C@@]12CN(C(=O)OCc3ccc(OC(F)(F)F)cc3)C[C@H]1CN(C(=O)c1ccc(S(N)(=O)=O)cc1)C2 [Example 4.00, (+)-(3aR,6aR)-3a-Methyl-5-(4-sulfamoyl-benzoyl)-hexahydro-pyrrolo[3,4-c]pyrrole-2-carboxylic acid 4-trifluoromethoxy-benzyl ester] |
| 8.15 | 7.42 | C[C@]12CN(C(=O)OCc3ccc(OC(F)(F)F)cc3)C[C@@H]1CN(C(=O)c1ccc(S(N)(=O)=O)cc1)C2 [Example 5.00, (−)-(3aS,6aS)-3a-methyl-5-(4-sulfamoylbenzoyl)-hexahydro-pyrrolo[3,4-c]pyrrole-2-carboxylic acid 4-trifluoromethoxy-benzyl ester] |
